Measured values reported in US20240415837A1, “PHARMACOLOGIC MODULATION OF 5-FLUOROURACIL BY FOLINIC ACID AND VITAMIN B6 FOR THE TREATMENT OF PATIENTS WITH CARCINOMA” (priority 2021, published 2024).
Read-outs that look alike come from different tables or passages of the source.

Experiments:
[1] = Pilot study in patients with advanced breast carcinoma: assessment of toxicity; settings: human, in vivo
Excerpt: Doxorubicin comprised in FAC and AVCF regimens was suspended in case of ≥10% decrease in left ventricular ejection fraction from baseline value. […] Vinorelbine-containing chemotherapy (i.e., VCbF) was indicated instead of TCbF for patients who had severe hematopoietic impairment or prior taxane-induced toxicity and was used in substitution for TCbF in cases of paclitaxel-induced SPN occurring in patients throughout the study.
Patients with paclitaxel induced neuropathy, whose chemotherapy was either interrupted or pursued with VCbF had further progressive decrease of neurologic symptoms, and then disappearance occurring in most patients during follow-up. […] Except for interruption of paclitaxel as described above, no dose reductions of any cytostatic agent or increasing intervals between courses due to unusual or unexpectedly excessive hematologic and/or visceral toxicity were required. The single case of acute myelogenous leukemia carrying the 17q-chromosome aberration marker occurred 18 months after cessation of induction treatment in one patient who had prior genotoxic cytostatics and radiotherapy.

[2] = cited from earlier work
[3] = Erythrocyte pharmacokinetics of vitamin B6 after intraperitoneal high-dose pyridoxine or pyridoxamine in mice; settings: erythrocytes, 450 mg/kg intraperitoneal
Description: Erythrocyte pyridoxamine 5′-phosphate (PMP) and pyridoxal 5′-phosphate (PLP) levels were measured in mice after intraperitoneal administration of high doses of pyridoxine (PN) or pyridoxamine (PM).

[4] = target: T1, pyridoxine (pyridoxamine) 5′-phosphate oxidase (PNPOx) (Homo sapiens, UniProt Q9NVS9); settings: read-out: Km of PNPOx; cited from earlier work
T1 sequence (Q9NVS9 1-261): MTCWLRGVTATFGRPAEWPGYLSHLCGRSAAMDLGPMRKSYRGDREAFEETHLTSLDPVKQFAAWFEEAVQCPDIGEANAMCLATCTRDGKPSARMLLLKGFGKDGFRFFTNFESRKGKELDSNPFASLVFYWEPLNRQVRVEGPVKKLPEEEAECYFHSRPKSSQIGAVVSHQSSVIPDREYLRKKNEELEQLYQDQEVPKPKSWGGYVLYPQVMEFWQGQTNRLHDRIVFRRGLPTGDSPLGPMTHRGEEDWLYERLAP

[5] = target: serine hydroxymethyl transferase (SHMT) apoenzyme; settings: cited from earlier work

## Cc1ncc(CO)c(CO)c1O [PN, pyridoxine]
[1]
  sensory peripheral neuropathy with high cumulative doses of pyridoxine, versus that expected with paclitaxel in TCbF: not accompanied with greater incidence, or higher grades, of sensory peripheral neuropathy
[2]; extremely high doses for long periods of time
  toxicity in man: sensory peripheral neuropathy
[2]; high doses used for treatment of various conditions
  safety in man: safe
[3]
  AUC 12 h of B6 vitamer: PLP: 2,231 nmol/L cells · 12 h
  AUC 12 h of B6 vitamer: PMP: 11,597 nmol/L cells · 12 h

## Cc1ncc(COP(=O)(O)O)c(CN)c1O [PMP, pyridoxamine 5′-phosphate]
[4]
  Km: 1 µM

## Cc1ncc(COP(=O)(O)O)c(C=O)c1O [PLP, pyridoxal 5′-phosphate]
[5]; read-out: Kd of SHMT binding to cofactor, lower end of reported range
  Kd: ≥ 0.25 µM
[5]; read-out: Kd of SHMT binding to cofactor, upper end of reported range
  Kd: ≤ 27 µM

## Cc1ncc(CO)c(CN)c1O [PM, pyridoxamine]
[3]
  AUC 12 h of B6 vitamer: PLP: 14,988 nmol/L cells · 12 h
  AUC 12 h of B6 vitamer: PMP: 19,356 nmol/L cells · 12 h
